These results are taken from patent US12102087B2 (priority 2012, dated 2024).

Like-named read-outs stand apart in the source and are kept apart here.

Common to all, as to type: in vivo
One assay concerns Phytophthora infestans. Put plainly: whole plant or invertebrate. To be noted: Phytophthora infestans, 72 h; for pest or weed control at 0.005 ppm: application rate 0.005 ppm a.i.; for pest or weed control at 0.01 ppm: application rate 0.01 ppm a.i.; for pest or weed control at 0.0025 ppm: application rate 0.0025 ppm a.i.
For a further assay, the system named is Venturia inaequalis. Put plainly: Venturia test (apples)/preventive. To be noted: Venturia inaequalis, 240 h, read-out: Efficacy in % found; for pest or weed control at 50 ppm: application rate 50 ppm a.i.; for pest or weed control at 100 ppm: application rate 100 ppm a.i. The text has this:
(§1) A synergistic effect of fungicides is always present when the fungicidal activity of the active compound combinations exceeds the total of the activities of the active compounds when applied individually. The expected activity for a given combination of two active compounds can be calculated as follows (cf. Colby, S. R., “Calculating Synergistic and Antagonistic Responses of Herbicide Combinations”, Weeds 1967, 15, 20-22):
(§2) If • X is the efficacy when active compound A is applied at an application rate of m ppm (or g/ha), • Y is the efficacy when active compound B is applied at an application rate of n ppm (or g/ha), • E is the efficacy when the active compounds A and B are applied at application rates of m and n ppm (or g/ha), respectively, and
Venturia test (apples)/preventive • Solvent: 24.5 parts by weight of acetone • 24.5 parts by weight of dimethylacetamide • Emulsifier: 1 part by weight of alkylaryl polyglycol ether
(§3) To produce a suitable preparation of active compound, 1 part by weight of active compound is mixed with the stated amounts of solvent and emulsifier, and the concentrate is diluted with water to the desired concentration.
To test for preventive activity, young plants are sprayed with the preparation of active compound at the stated rate of application. After the spray coating has dried on, the plants are inoculated with an aqueous conidia suspension of the causal agent of apple scab (Venturia inaequalis) and then remain for 1 day in an incubation cabinet at approximately 20° C. and a relative atmospheric humidity of 100%.
The plants are then placed in a greenhouse at approximately 21° C. and a relative atmospheric humidity of approximately 90%.
The test is evaluated 10 days after the inoculation. 0% means an efficacy which corresponds to that of the untreated control, while an efficacy of 100% means that no disease is observed.

The next assay has as its system Alternaria solani. Put plainly: Alternaria test (tomatoes)/preventive. As to conditions: Alternaria solani, 72 h, read-out: Efficacy in % found; for pest or weed control at 25 ppm: application rate 25 ppm a.i.; for pest or weed control at 100 ppm: application rate 100 ppm a.i.
Source text: as §1, §2
Alternaria Test (Tomatoes)/Preventive • Solvent: 24.5 parts by weight of acetone • 24.5 parts by weight of dimethylacetamide • Emulsifier: 1 part by weight of alkylaryl polyglycol ether
as §3
To test for preventive activity, young plants are sprayed with the preparation of active compound at the stated rate of application. After the spray coating has dried on, the plants are inoculated with an aqueous spore suspension of Alternaria solani. The plants are then placed in an incubation cabinet at approximately 20° C. and a relative atmospheric humidity of 100%.
The test is evaluated 3 days after the inoculation. 0% means an efficacy which corresponds to that of the untreated control while an efficacy of 100% means that no disease is observed.

A further assay deals with Sphaerotheca fuliginea. Nature of the assay: Sphaerotheca test (cucumbers)/preventive.
Source text: as §1, §2
Sphaerotheca Test (Cucumbers)/Preventive • Solvent: 24.5 parts by weight of acetone • 24.5 parts by weight of dimethylacetamide • Emulsifier: 1 part by weight of alkylaryl polyglycol ether
as §3
To test for preventive activity, young plants are sprayed with the preparation of active compound at the stated rate of application. After the spray coating has dried on, the plants are inoculated with an aqueous spore suspension of Sphaerotheca fuliginea. The plants are then placed in a greenhouse at approximately 23° C. and a relative atmospheric humidity of approximately 70%.
The test is evaluated 7 days after the inoculation. 0% means an efficacy which corresponds to that of the untreated control, while an efficacy of 100% means that no disease is observed.

The mark [1] stands for this setting: read-out: Efficacy in % found, Table 3.
Setting [2] is: read-out: Efficacy in % found, Table 4.
[3] abbreviates: read-out: Efficacy in % found, Table 5.
The mark [4] stands for this setting: read-out: Efficacy in % found, Table 6.
Setting [5] is: Table 7, application rate 100 ppm a.i.

For `CS(=O)(=O)Oc1ccccc1C1CC(c2csc(C3CCN(C(=O)Cn4nc(C(F)F)cc4C(F)F)CC3)n2)=NO1` (stereo not shown) [(I-1), 2-{3-[2-(1-{[3,5-bis(difluoromethyl)-1H-pyrazol-1-yl]acetyl}piperidin-4-yl)-1,3-thiazol-4-yl]-4,5-dihydro-1,2-oxazol-5-yl}phenyl methanesulfonate], the pest or weed control at 0.005 ppm was 82% in the assay with Phytophthora infestans (setting [1]) and 67% with Phytophthora infestans (setting [2]). Also, the pest or weed control at 0.01 ppm in the assay with Phytophthora infestans (setting [2]) came to 77%. The pest or weed control at 0.0025 ppm is 52% in the assay with Phytophthora infestans (setting [3]) and 48% with Phytophthora infestans (setting [4]). Moreover, the pest or weed control at 50 ppm in the assay on Venturia inaequalis (Table 10) was found to be 0%; in the assay with Venturia inaequalis (Table 11), 4%. Moreover, the pest or weed control at 100 ppm worked out at 0% with Venturia inaequalis (Table 10); 13% with Venturia inaequalis (Table 11); 21% in the assay with Venturia inaequalis (Table 12); 0% in the assay on Venturia inaequalis (Table 13); 34% in the assay on Alternaria solani (Table 2). For the same molecule, the pest or weed control at 25 ppm with Alternaria solani (Table 1) came to 20%. For the same molecule, the “Efficacy in % found” value in the assay with Sphaerotheca fuliginea (setting [5]) was determined as 19%; with Sphaerotheca fuliginea (Table 8, application rate 100 ppm a.i.) it was 0%; in the assay with Sphaerotheca fuliginea (Table 9, application rate 100 ppm a.i.), 38%.
Turning to `O=C(NCCc1ncc(C(F)(F)F)cc1Cl)c1ccccc1C(F)(F)F` [2.6, fluopyram], the pest or weed control at 4 ppm with Venturia inaequalis (Table 10, application rate 4 ppm a.i.) was found to be 21%. Besides, the pest or weed control at 1 ppm in the assay with Alternaria solani (Table 1, application rate 1 ppm a.i.) is 48%. Besides, in the assay with Sphaerotheca fuliginea (Table 7, application rate 4 ppm a.i.), the “Efficacy in % found” value came out at 19%.
Take `CC(C)CC(C)c1sccc1NC(=O)c1cn(C)nc1C(F)(F)F` (stereo not shown) [2.21, penthiopyrad]: in the assay with Phytophthora infestans (read-out: Efficacy in % found, Table 5, application rate 2.5 ppm a.i.), the pest or weed control at 2.5 ppm worked out at 0%. Further, the pest or weed control at 2 ppm with Venturia inaequalis (Table 10, application rate 2 ppm a.i.) was determined as 8%. Also, the pest or weed control at 0.5 ppm in the assay with Alternaria solani (Table 1, application rate 0.5 ppm a.i.) is 39%.
Turning to `CS(=O)(=O)Oc1cccc(Cl)c1C1CC(c2csc(C3CCN(C(=O)Cn4nc(C(F)F)cc4C(F)F)CC3)n2)=NO1` (stereo not shown) [(I-3), 2-{3-[2-(1-{[3,5-bis(difluoromethyl)-1H-pyrazol-1-yl]acetyl}piperidin-4-yl)-1,3-thiazol-4-yl]-4,5-dihydro-1,2-oxazol-5-yl}-3-chlorophenyl methanesulfonate], the pest or weed control at 0.0025 ppm with Phytophthora infestans (setting [1]) was found to be 65%; with Phytophthora infestans (setting [3]), 59%; with Phytophthora infestans (setting [4]), 79%. Further, the pest or weed control at 0.005 ppm in the assay with Phytophthora infestans (setting [2]) turned out to be 5%. Further, the results for the pest or weed control at 0.01 ppm in the assay with Phytophthora infestans (setting [2]) and in the assay with Phytophthora infestans (setting [3]) were 28% and 87%, respectively. The pest or weed control at 50 ppm with Venturia inaequalis (Table 10) and in the assay with Venturia inaequalis (Table 11) was 0% in each case. The pest or weed control at 100 ppm came to 0% in the assay with Venturia inaequalis (Table 10); 15% in the assay on Venturia inaequalis (Table 11); 0% in the assay on Venturia inaequalis (Table 12); 0% in the assay with Venturia inaequalis (Table 13); 36% with Alternaria solani (Table 2). The pest or weed control at 25 ppm with Alternaria solani (Table 1) was found to be 0%; in the assay with Alternaria solani (Table 2) it was 30%. In addition, the “Efficacy in % found” value with Sphaerotheca fuliginea (setting [5]) came out at 43%; in the assay on Sphaerotheca fuliginea (Table 8, application rate 50 ppm a.i.), 19%; in the assay on Sphaerotheca fuliginea (Table 9, application rate 50 ppm a.i.), 29%.
